Experimental data reported in patent publication US6566338B1, “Caspase inhibitors for the treatment and prevention of chemotherapy and radiation therapy induced cell death” (Cytovia, Inc., priority 1999, dated 2003).

Key:
[1] = system: Jurkat T leukemia cells; assay: Propidium iodide uptake assay of apoptosis induced by chemotherapeutic agents or UV irradiation in Jurkat T cells; format: cell-based; conditions: 18 h
Procedure: Jurkat T leukemia cells were grown in RPMI 1640 media (Life Technologies, Inc.)+10% FCS (Sigma Chemical Company) in a 5% CO2 -95% humidity incubator at 37° C., and maintained at a cell density between 4 and 8×10^5 cells/ml. 1×10^6 cells were treated with Doxorubicin (1 μM) or Paclitaxel (20 μM) or UV irradiation (40 J/m^2) with or without the caspase inhibitor Z-VD-fmk (10 μM) and incubated at 37° C. for 18 h. As a control, cells were also incubated with DMSO. At 18 h cells were observed under phase contrast microscopy to visualize any morphological changes induced by the apoptotic stimuli. Cells were assessed for viability by a propidium iodide uptake assay. Briefly, 20 μl of propidium solution containing 100 μg/ml of propidium iodide was added to 200 μl of cells and transferred to 12×75mm polystyrene tubes and analyzed on a flow cytometer. All flow cytometry analyses were performed on FACScalibur (Becton Dickinson) using CellQuest analysis software.
FIGS. 1A-C depict photographs of Jurkat cells: FIG. 1A, DMSO treated control cells; FIG. 1B, cells treated with doxorubicin (1 μM); FIG. 1C, cells treated with doxorubicin (1 μM) and Z-VD-fmk (10 μM). FIG. 1D depicts a bar graph showing percentage of cell apoptosis as measured by a propidium iodide uptake assay: a, DMSO treated control cells; b, cells treated with doxorubicin; c, cells treated with doxorubicin and Z-VD-fmk.
FIGS. 2A-C depict photographs of Jurkat cells: FIG. 2A, DMSO treated control cells; FIG. 2B, cells treated with paclitaxel (20 μM); FIG. 2C, cells treated with paclitaxel (20 μM) and Z-VD-fink (10 μM). FIG. 2D depicts a bar graph showing percentage of cell apoptosis as measured by a propidium iodide uptake assay: a, DMSO treated control cells; b, cells treated with paclitaxel; c, cells treated with paclitaxel and Z-VD-fink.
FIGS. 3A-C depict photographs of Jurkat cells: FIG. 3A, DMSO treated control cells; FIG. 3B, cells treated with UV irradiation (40 J/m^2); FIG. 3C, cells treated with UV irradiation (40 J/m2) and Z-VD-fmk (10 μM). […]

[2] = system: oral mucositis induced by acute irradiation in hamsters; assay: Radiation-induced oral mucositis in hamsters (acute radiation model, mucositis scoring); format: in vivo, Golden Syrian hamsters; conditions: for days with ulcerations (animal days with mucositis score of 3 or more) / daily mucositis scores, rank sum analysis vs vehicle control / reduction in ulceration vs vehicle control: day −2 to day 16; for days with ulcerations (animal days with mucositis score of 3 or more): vehicle control 56 days
Source text: A hamster model of chemotherapy-induced mucositis and, more recently, a model of radiation-induced mucositis has been developed (Sonis S. et al. Oral Surg. Oral. Med. Oral Pathol. 69:437-443 (1990) and Sonis S. et al. Cancer, 85:2103-13 (1999)). In the latter model, specific doses of acute radiation are targeted to the designated mucosa, with protection of other areas by a customized lead shield.
The objective of this study was to assess the effect of the topical and IP administration of (3R,S)-5-fluoro-3-[(2S)-3-methyl-1-oxo-2-(phenylcarbam-oyloxy)butyl]amino-4-oxo-pentanoic acid (a caspase inhibitor described in U.S. Application Ser. Nos. 60/151,077 and 60/158,373), in attenuating the development and progress of oral mucositis induced by acute irradiation in hamsters. Mucositis scores in hamsters receiving different doses of the compound were compared to those in hamsters receiving vehicle control, in order to detect statistically significant differences in the onset, duration or severity of the disorder.
Thirty-two (32) hamsters were randomly divided into four treatment groups with eight (8) animals per group. Each group was assigned a different treatment as follows:
Group 1: Vehicle control—topical vehicle control, tid (3 times daily), day −2 to day 16.
Group 2: Test compound at 20 mg/kg, IP once per day, day −2 to day 16.
Group 3: Test compound at 0.36 mg/ml (0.2 ml), topical, tid, day −2 to day 16.
Group 4: Test compound at 0.072 mg/ml (0.2 ml), topical, tid, day −2 to day 16.
viii) Starting on day 6 and continuing every second day thereafter (days 8, 10, 12, 14, 16, 18, 20, 22, 24, 26 & 28), each animal was photographed and evaluated for mucositis scoring.
dose of radiation (35 Gy/dose) was administered to all animals on Day 0. Radiation was generated with a 250 kilovolt potential (15-mA) source at a focal distance of 50 cm, hardened with a 0.35 mm Cu filtration system. Irradiation targeted the left buccal pouch mucosa at a rate of 121.5 cGy/minute. Prior to irradiation, animals were anesthetized with an intraperitoneal injection of sodium pentobarbital (80 mg/kg). The left buccal pouch was everted, fixed and isolated using a lead shield.
(§1) Topical dosing of animals was done three times per day. For topical treatments, a needleless tuberculin syringe, containing 0.2 ml of the test compound in 0.05M Tris (pH 8.0), was inserted into the left cheek pouch and the drug deposited into the pouch. Intraperitoneal injections of the compound were done once a day at a dose of 20 mg/kg and a drug concentration of 3-6 mg/ml in 0.05M Tris (pH 8.0). Dosing began on day −2 for all groups. In all groups treatment continued until day 16.
Mucositis Evaluation The mucositis score, weight change and survival were measured as outcomes in this study. For the evaluation of mucositis, the animals were anesthetized with inhalation anesthetics, and the left pouch everted. Mucositis was scored visually by comparison to a validated photographic scale, ranging from 0 for normal, to 5 for severe ulceration (clinical scoring). In descriptive terms, this scale is defined as follows: […]
A score of 1-2 is considered to represent a mild stage of the disease, whereas a score of 3-5 is considered to indicate moderate to severe mucositis. Following visual scoring, a photograph was taken of each animal's mucosa using a standardized technique. At the conclusion of the experiment, all films were developed and the photographs randomly numbered. At least two independent trained observers graded the photographs in blinded fashion using the above described scale (blinded scoring).

[3] = Weight change and survival in the hamster mucositis study; format: in vivo, Golden Syrian hamsters; conditions: at the doses used: 20 mg/kg IP; 0.36 and 0.072 mg/ml topical
Source text: i) Every day for the period of the study (day −2 to day 28), each animal was weighed and its survival recorded (to accommodate the schedules of the study site weights were taken every other day starting on day 17 and continuing to day 28).
Male Golden Syrian hamsters (Charles River Laboratories or Harlan Sprague Dawley), aged 5 to 6 weeks, with body weights of approximately 90 g at project commencement, were used. Animals were individually numbered using an ear punch and housed in small groups of 2 animals per cage. Animals were acclimatized for at least one week prior to project commencement. During this period, the animals were observed daily in order to reject animals that present poor condition.
as §1, with “Dosing began on day −2 for all groups. In all groups treatment continued until day 16.” left out
Mucositis Evaluation The mucositis score, weight change and survival were measured as outcomes in this study. […] Mucositis was scored visually by comparison to a validated photographic scale, ranging from 0 for normal, to 5 for severe ulceration (clinical scoring). […]

| Structure (SMILES) | doxorubicin induced cell death in Jurkat cells ([1]; Doxorubicin 1 μM, Z-VD-fmk 10 μM, FIGS. 1A-D) | paclitaxel induced cell death in Jurkat cells ([1]; Paclitaxel 20 μM, Z-VD-fmk 10 μM, FIGS. 2A-D) | UV irradiation induced cell death in Jurkat cells ([1]; UV irradiation 40 J/m^2, Z-VD-fmk 10 μM, FIGS. 3A-D) | days with ulcerations (animal days with mucositis score of 3 or more) ([2]; 0.072 mg/ml (0.2 ml) topical tid) [days] | daily mucositis scores, rank sum analysis vs vehicle control ([2]; 0.072 mg/ml topical tid) | reduction in ulceration vs vehicle control ([2]; 0.072 mg/ml topical tid, p=0.061, not significant) [%] | days with ulcerations (animal days with mucositis score of 3 or more) ([2]; 0.36 mg/ml (0.2 ml) topical tid) [days] | daily mucositis scores, rank sum analysis vs vehicle control ([2]; 0.36 mg/ml topical tid) | reduction in ulceration vs vehicle control ([2]; 0.36 mg/ml topical tid, p<0.001) [%] | daily mucositis scores, rank sum analysis vs vehicle control ([2]; 20 mg/kg IP once per day) | reduction in ulceration vs vehicle control ([2]; 20 mg/kg IP once per day, p=0.068, not significant) [%] | days with ulcerations (animal days with mucositis score of 3 or more) ([2]; 20 mg/kg IP once per day) [days] | onset of ulceration ([2]; day 0 to day 16, all treatment groups) | systemic toxicity (mortality due to the treatment) [3] |
| --- | --- | --- | --- | --- | --- | --- | --- | --- | --- | --- | --- | --- | --- | --- |
| CC(C)[C@H](NC(=O)OCc1ccccc1)C(=O)NC(CC(=O)O)C(=O)CF (some centres unmarked) [Z-VD-fmk] | blocks doxorubicin induced cell death | blocks paclitaxel induced cell death | blocks UV irradiation induced cell death | – | – | – | – | – | – | – | – | – | – | – |
| CC(C)[C@H](OC(=O)Nc1ccccc1)C(=O)NC(CC(=O)O)C(=O)CF (stereo partly drawn) [test compound, (3R,S)-5-Fluoro-3-[(2S)-3-methyl-1-oxo-2-(phenylcarbamoyloxy)butyl]amino-4-oxo-pentanoic Acid] | – | – | – | 42 | Significance was achieved only on day 18 | 25 | 27 | significant reduction of mucositis on days 18, 20, 22 & 26 | 51.8 | significant reduction in mucositis severity on days 20 and 22 | 24.8 | 39 | no apparent reduction in the onset of ulceration | no systemic toxicity |
